Series [1] concerns Escherichia coli. The experiment in a line: microbe, parasite or virus in culture.
Series [2] has as its target 72 kDa type IV collagenase (Homo sapiens, UniProt P08253). The experiment in a line: Dose Response validation of uHTS RPN11 inhibitor hits using a MMP-2 Fluorescence assay. It counts as functional.
For series [3], the target named is Prothrombin (Bos taurus, UniProt P00735). The experiment in a line: thrombin inhibition, dose response, biochemical, fluorescence polarization, uHTS hits (AID 602369). It counts as functional. (In general: In fluorescence polarisation assays a small probe gives low polarisation when free and higher when bound to something large.)
For series [4], the target named is 26S proteasome non-ATPase regulatory subunit 14 (Homo sapiens, UniProt O00487). The experiment in a line: inhibition of proteasome subunit RPN11 – biochemical, fluorescence polarization, uHTS hits, confirmation (AID 602368). It counts as functional.
The target in series [5] is Hexokinase HKDC1 (Homo sapiens, UniProt Q2TB90). The series can be described thus: HKDC1 hexokinase activators, dose response, biochemical, W721R variant (AID 504730). In kind it is functional.
Series [6] addresses Hexokinase-1 (Homo sapiens, UniProt P19367). The experiment in a line: hexokinase 1 activators, dose response, selectivity assay for HKDC1 activator project, biochemical (AID 504762). In kind it is functional.
In series [7] the target is T1, Intestinal-type alkaline phosphatase (Homo sapiens, UniProt P09923). The series can be described thus: human IAP activators, dose response, biochemical, luminescent, uHTS hits, set 2 (AID 488817).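 Also: potency of activators that raise enzyme activity.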 It counts as functional.
T1 sequence (P09923 whole entry): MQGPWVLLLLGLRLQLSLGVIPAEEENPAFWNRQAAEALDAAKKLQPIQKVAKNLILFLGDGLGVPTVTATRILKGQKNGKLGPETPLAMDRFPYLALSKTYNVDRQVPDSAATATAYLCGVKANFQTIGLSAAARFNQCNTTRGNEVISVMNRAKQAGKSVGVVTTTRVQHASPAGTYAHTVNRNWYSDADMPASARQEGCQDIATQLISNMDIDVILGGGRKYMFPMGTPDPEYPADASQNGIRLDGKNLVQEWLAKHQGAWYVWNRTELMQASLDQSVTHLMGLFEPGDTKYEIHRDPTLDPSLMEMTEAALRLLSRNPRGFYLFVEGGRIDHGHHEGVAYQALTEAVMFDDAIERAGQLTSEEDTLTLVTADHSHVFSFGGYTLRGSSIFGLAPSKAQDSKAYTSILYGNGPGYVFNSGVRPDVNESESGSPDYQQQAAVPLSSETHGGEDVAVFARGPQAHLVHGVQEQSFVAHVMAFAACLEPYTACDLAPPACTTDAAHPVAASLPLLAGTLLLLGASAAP
The target of series [8] is T2, Alkaline phosphatase, tissue-nonspecific isozyme (Homo sapiens, UniProt P05186).
T2 sequence (P05186 whole entry): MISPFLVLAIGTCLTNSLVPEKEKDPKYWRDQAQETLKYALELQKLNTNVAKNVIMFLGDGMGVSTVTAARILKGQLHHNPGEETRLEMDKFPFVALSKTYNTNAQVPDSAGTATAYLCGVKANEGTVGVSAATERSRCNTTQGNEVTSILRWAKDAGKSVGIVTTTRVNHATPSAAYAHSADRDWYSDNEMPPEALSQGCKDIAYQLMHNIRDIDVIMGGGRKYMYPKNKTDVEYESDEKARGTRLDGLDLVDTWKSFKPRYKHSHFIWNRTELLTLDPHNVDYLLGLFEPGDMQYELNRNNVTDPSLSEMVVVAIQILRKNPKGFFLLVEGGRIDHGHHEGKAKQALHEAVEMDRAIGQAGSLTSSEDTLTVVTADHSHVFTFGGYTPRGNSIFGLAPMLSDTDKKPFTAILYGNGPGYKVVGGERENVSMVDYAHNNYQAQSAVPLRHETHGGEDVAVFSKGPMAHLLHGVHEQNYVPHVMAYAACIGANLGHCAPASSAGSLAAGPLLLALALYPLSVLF
The series can be described thus: TNAP enzyme activators, dose response, selectivity assay for human IAP activator project, biochemical, TNAP isozyme, human IAP uHTS hits (AID 488886).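 Also: potency of compounds raising TNAP activity as a selectivity check on IAP activators.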 In kind it is functional.

Series [9] addresses T1, Intestinal-type alkaline phosphatase. The series can be described thus: human intestinal alkaline phosphatase activators, dose response, biochemical, luminescence, uHTS hits (AID 463120). It counts as functional.
The target of series [10] is Intestinal-type alkaline phosphatase (Mus musculus, UniProt P24822). The experiment in a line: PubChem AID 488874. It counts as functional.
Intestinal-type alkaline phosphatase (Mus musculus, UniProt P24822), sequence (P24822 whole entry): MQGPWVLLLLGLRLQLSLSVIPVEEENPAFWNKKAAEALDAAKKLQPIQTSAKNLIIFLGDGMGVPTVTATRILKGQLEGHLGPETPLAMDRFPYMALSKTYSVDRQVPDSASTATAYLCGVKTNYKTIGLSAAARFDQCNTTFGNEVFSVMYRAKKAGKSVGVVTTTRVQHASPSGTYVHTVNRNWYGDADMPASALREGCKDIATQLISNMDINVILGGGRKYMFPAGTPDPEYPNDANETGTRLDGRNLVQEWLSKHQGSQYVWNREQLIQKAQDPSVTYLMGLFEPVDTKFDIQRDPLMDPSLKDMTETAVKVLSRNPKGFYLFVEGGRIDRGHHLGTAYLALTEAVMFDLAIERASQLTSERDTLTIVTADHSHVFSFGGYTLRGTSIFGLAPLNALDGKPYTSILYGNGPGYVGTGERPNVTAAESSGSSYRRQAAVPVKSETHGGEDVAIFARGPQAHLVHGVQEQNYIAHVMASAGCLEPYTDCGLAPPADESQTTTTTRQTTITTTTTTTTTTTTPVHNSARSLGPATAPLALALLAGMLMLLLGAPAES
For series [11], the target named is T3, Long-chain-fatty-acid--AMP ligase FadD28 (Mycobacterium tuberculosis, UniProt P9WQ59).
T3 sequence (P9WQ59 whole entry): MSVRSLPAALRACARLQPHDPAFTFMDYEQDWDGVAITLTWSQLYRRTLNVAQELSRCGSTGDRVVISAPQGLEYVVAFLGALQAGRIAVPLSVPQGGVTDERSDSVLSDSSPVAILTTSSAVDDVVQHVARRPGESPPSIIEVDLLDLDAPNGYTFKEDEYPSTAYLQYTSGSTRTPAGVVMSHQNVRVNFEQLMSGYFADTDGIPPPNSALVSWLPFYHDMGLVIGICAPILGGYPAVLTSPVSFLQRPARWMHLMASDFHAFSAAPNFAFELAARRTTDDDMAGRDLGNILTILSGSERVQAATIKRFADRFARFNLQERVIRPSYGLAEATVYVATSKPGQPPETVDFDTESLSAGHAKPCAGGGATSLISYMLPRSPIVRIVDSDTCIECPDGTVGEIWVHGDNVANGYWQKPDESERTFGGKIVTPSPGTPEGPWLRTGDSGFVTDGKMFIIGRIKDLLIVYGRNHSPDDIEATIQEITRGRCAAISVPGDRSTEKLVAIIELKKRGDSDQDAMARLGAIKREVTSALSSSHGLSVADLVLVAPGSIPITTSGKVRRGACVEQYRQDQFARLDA
The series can be described thus: Fluorescence polarization aasay to screen for inhibitors that compete for the binding of FadD28 to a bisubstrate Measured in Biochemical System Using Plate Reader - 2147-01_Inhibitor_Dose_CherryPick_Activity. It counts as functional, Mycobacterium tuberculosis H37Rv.

Series [12] deals with T4, Bcl-2-related protein A1 (Mus musculus, UniProt Q07440).
T4 sequence (Q07440 whole entry): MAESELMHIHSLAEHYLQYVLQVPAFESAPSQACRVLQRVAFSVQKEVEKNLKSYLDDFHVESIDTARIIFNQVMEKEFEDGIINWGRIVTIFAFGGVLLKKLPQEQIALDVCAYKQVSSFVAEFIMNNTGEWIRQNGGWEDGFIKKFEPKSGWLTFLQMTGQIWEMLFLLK
In kind it is functional.

The target of series [13] is T5, Ubiquitin-conjugating enzyme E2 N (Homo sapiens, UniProt P61088).
T5 sequence (P61088 whole entry): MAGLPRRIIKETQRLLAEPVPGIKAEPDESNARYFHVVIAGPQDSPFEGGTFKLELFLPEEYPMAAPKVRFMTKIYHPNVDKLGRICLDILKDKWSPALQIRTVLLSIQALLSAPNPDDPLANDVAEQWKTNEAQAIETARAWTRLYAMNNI
In kind it is functional.

Series [14] has as its target T5, Ubiquitin-conjugating enzyme E2 N. It counts as functional. This is another data set of the same source.
In series [15] the target is Cytochrome P450 2C19 (Homo sapiens, UniProt P33261). The experiment in a line: Cytochrome panel assay with activity outcomes. Panel member name: p450-cyp2c19 Compounds with AC50 equal or less than 10 uM are considered active. It counts as functional. As to conditions: read-out: AC50.
Series [16] addresses Cytochrome P450 3A4 (Homo sapiens, UniProt P08684).
The target of series [17] is T6, Cytochrome P450 1A2 (Homo sapiens, UniProt P05177).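 Also: PubChem cytochrome P450 panel assay, CYP1A2 panel member.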
T6 sequence (P05177 whole entry): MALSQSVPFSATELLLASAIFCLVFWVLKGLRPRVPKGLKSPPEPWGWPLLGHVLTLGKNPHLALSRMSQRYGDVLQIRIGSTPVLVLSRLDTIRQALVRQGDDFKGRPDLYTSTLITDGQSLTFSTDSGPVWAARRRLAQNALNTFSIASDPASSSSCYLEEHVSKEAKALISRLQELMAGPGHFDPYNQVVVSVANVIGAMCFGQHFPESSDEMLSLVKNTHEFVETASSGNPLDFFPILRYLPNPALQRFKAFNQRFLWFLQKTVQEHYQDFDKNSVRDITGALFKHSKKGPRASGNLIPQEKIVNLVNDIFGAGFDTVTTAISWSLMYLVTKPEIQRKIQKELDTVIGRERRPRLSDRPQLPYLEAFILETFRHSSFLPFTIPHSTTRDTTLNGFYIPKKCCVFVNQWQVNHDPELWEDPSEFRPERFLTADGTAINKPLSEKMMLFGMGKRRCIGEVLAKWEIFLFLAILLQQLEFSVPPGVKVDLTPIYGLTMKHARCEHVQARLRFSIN

The target of series [18] is Cytochrome P450 2C9 (Homo sapiens, UniProt P11712).
For series [19], the target named is Peroxisome proliferator-activated receptor gamma/Nuclear receptor coactivator 1 (Homo sapiens, UniProt P37231). The experiment in a line: TR-FRET dose response biochemical High Throughput Screening assay for agonists of the steroid receptor coactivator 1 (SRC-1) recruitment by the peroxisome proliferator-activated receptor gamma (PPAR gamma): non-selective agonists. [Related pubchem assays (depositor defined):AID1300, AID1808, AID504735, AID631]. It counts as protein assay. (In general: Time-resolved FRET reads energy transfer from a long-lived donor to a nearby acceptor.)

Series [20] concerns the target Peroxisome proliferator-activated receptor gamma/Nuclear receptor coactivator 2 (Homo sapiens, UniProt P37231). The experiment in a line: TR-FRET dose response biochemical High Throughput Screening assay for agonists of the steroid receptor coactivator 2 (SRC-2) recruitment by the peroxisome proliferator-activated receptor gamma (PPAR gamma): non-selective agonists. [Related pubchem assays: 1297, 1032 ]. It counts as functional.

The nature of series [21]: cytotoxicity in HEK-293T cells, dose response, cytotoxicity control for BCR NF-kB inhibitor project, luminescence, B-cell screen hits (AID 489021).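 Also: HEK-293T cells carrying an NF-kB luciferase reporter; cells exposed to compound for about 14 hours before viability readout.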 In kind it is functional, cell-based.
Series [22] has as its target Peroxisome proliferator-activated receptor gamma/Nuclear receptor coactivator 3 (Homo sapiens, UniProt P37231). The series can be described thus: TR-FRET dose response biochemical High Throughput Screening assay for agonists of the steroid receptor coactivator 3 (SRC-3) recruitment by the peroxisome proliferator-activated receptor gamma (PPAR gamma): non-selective agonists. [Related pubchem assays: 1301 (Confirmation screen.), 1048 (Primary screen.)]. It counts as functional.

Active and inactive are the calls of the source.

Peroxisome proliferator-activated receptor gamma/Nuclear receptor coactivator 2, sequence (P37231 whole entry): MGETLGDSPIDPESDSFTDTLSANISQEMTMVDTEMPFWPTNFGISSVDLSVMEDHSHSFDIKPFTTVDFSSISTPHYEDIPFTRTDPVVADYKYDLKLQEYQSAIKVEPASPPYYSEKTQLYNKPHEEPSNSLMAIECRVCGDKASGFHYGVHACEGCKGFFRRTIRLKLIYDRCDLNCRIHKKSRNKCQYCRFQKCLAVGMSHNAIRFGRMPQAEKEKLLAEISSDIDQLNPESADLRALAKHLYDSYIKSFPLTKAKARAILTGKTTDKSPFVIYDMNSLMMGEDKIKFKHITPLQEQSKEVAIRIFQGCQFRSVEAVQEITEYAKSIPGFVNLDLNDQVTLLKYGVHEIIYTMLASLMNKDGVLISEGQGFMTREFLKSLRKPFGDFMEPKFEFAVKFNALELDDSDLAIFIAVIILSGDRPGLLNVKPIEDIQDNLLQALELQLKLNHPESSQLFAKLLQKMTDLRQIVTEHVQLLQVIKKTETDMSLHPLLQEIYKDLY
Peroxisome proliferator-activated receptor gamma/Nuclear receptor coactivator 2, sequence (Q15596 whole entry, further chain): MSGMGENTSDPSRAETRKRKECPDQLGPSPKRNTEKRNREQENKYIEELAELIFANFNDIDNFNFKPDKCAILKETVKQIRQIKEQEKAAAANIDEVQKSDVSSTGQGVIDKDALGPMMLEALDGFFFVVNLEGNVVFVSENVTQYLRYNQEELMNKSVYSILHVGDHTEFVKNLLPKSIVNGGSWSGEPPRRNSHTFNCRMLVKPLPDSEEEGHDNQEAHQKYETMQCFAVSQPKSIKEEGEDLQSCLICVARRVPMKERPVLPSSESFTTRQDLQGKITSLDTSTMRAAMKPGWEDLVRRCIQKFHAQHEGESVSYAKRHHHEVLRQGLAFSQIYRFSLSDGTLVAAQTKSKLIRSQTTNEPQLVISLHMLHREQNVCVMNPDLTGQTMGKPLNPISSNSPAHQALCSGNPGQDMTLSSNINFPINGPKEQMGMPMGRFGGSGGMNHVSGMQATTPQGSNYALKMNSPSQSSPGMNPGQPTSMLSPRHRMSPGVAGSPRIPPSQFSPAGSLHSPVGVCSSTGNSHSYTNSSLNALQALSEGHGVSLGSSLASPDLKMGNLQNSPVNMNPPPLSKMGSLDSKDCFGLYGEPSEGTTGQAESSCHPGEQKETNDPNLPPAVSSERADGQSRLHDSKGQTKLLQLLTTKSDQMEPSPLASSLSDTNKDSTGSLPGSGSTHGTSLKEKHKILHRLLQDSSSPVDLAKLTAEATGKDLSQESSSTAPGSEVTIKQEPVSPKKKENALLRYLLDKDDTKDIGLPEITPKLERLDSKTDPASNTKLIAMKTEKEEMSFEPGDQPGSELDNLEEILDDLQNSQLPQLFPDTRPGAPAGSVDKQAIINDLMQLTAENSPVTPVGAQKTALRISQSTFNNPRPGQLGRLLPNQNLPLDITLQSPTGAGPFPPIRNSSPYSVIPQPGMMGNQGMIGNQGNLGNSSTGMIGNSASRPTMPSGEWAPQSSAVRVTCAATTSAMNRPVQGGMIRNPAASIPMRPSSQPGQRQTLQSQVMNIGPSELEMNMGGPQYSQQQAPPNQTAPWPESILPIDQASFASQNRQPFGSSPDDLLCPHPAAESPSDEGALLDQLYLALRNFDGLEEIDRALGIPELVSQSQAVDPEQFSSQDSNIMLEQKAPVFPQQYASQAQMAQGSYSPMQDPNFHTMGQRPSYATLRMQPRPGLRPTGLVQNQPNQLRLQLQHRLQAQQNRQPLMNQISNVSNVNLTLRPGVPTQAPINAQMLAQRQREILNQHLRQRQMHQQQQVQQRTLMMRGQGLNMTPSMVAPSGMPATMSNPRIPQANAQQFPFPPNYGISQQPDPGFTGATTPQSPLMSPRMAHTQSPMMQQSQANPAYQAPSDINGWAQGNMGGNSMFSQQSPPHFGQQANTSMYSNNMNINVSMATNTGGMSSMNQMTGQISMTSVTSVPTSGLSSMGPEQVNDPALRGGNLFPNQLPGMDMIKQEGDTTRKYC
Peroxisome proliferator-activated receptor gamma/Nuclear receptor coactivator 3, sequence (P37231 whole entry): as the sequence (P37231 whole entry) above
Peroxisome proliferator-activated receptor gamma/Nuclear receptor coactivator 3, sequence (Q9Y6Q9 whole entry, further chain): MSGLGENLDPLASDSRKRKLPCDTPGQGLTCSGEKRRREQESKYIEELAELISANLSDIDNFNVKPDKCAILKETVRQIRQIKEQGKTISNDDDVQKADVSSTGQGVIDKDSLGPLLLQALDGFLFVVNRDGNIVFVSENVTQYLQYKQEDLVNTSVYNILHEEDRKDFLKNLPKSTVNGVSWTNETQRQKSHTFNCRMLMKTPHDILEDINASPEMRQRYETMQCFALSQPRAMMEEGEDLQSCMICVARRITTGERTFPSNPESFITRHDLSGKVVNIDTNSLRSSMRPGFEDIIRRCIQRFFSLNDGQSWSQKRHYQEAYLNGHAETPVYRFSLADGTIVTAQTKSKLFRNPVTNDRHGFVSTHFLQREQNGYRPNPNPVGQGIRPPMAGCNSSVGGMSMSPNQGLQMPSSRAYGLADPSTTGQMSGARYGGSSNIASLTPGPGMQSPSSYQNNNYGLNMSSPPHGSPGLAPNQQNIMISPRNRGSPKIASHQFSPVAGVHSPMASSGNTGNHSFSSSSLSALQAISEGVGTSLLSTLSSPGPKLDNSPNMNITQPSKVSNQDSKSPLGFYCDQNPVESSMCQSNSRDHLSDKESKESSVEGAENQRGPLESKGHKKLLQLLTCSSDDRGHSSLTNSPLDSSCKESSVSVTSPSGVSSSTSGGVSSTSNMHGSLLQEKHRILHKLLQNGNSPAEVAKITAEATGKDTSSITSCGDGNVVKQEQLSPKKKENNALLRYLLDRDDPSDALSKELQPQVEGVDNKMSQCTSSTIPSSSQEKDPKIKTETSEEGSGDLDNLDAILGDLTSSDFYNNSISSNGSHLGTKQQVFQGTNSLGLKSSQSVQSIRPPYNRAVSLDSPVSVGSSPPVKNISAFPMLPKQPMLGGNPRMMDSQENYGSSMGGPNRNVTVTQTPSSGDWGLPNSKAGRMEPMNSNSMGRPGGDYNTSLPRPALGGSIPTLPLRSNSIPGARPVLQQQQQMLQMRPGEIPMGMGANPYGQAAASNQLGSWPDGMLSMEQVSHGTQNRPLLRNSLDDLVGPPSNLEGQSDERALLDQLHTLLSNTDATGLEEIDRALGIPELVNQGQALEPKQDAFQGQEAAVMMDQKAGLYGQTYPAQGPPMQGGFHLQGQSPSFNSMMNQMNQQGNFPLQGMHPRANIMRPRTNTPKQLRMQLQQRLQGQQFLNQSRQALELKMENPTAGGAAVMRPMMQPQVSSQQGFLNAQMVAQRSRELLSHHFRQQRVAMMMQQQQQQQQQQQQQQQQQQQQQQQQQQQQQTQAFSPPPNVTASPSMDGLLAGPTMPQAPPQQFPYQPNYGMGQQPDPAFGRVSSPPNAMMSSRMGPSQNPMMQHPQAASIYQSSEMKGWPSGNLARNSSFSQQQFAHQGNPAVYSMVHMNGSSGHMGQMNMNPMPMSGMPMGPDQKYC

Turning to `CCc1ccc2c(COC(=O)C3CC(=O)N(CCc4ccccc4)C3)cc(=O)oc2c1` (centres undefined), the AC50 in series [1] is 133 µM (active).
As to `COc1ccc(-c2[nH]c(-c3ccc(SC)cc3)nc2SCC(=O)Nc2nccs2)cc1`, the IC50 was > 100 µM (inactive) in [2], 49.9 µM (active) in series [3] and 19.6 µM (active) in [4]. Also, the EC50 in series [5] is 10.9 µM (active); in series [6] it was 16.3 µM (active).
As to `CN(C)S(=O)(=O)c1cccc(NC(=S)NNC(=O)c2cc3ccccc3cc2O)c1`, the EC50 in series [7] is 16.1 µM (active); in [8] it was 12.5 µM (active); in [9], 8.74 µM (active). Also, in series [10], the IC50 is 34.2 µM (active). The AC50 in series [11] is 77.8 µM (active).
As for `Cc1ccc(S(=O)(=O)CCNC(=O)Cc2ccc(Cl)cc2)cc1`, the AC50 in [1] was 46.1 µM (active).
`O=C(CCCn1c(=O)c2ccccc2n(Cc2cccc(F)c2)c1=O)NC1CCN(Cc2ccccc2)CC1`: the IC50 was > 20 µM (inactive) in [12], 1.31 µM (active) in series [13] and 2.11 µM (active) in series [14].
For `Cc1cnc(CNc2cc(-c3ccccc3C(F)(F)F)ncn2)cn1`, the AC50 is 39.8 µM (inconclusive) in series [15], “inconclusive” in series [16], 25.1 µM (inconclusive) in series [17] and “inconclusive” in [18].
Consider `CCN1CCN(C(=O)CSc2cc(=O)n(CC)c3ccccc23)CC1`, for which the EC50 is > 79.4 µM (inactive) in series [19], > 79.4 µM (not active) in series [20] and > 79.4 µM (not active) in series [22]. Moreover, the IC50 is > 80 µM (inactive) in [21] and > 20 µM (inactive) in series [14].
For the compound `CCOC(=O)CSc1cc(=O)n(CC)c2ccccc12`, the EC50 was > 79.4 µM (inactive) in [19], > 79.4 µM (not active) in [20] and > 79.4 µM (not active) in series [22].
Turning to `CC(C)(C)OC(=O)N1CCC(NC(=O)c2[nH]cnc2C(=O)Nc2ccon2)CC1`, the EC50 in series [7] is 13.3 µM (active); in series [8] it was 13.9 µM (active); in series [9], 10.1 µM (active). Moreover, the IC50 in [10] was 47.2 µM (active).
As to `COCCNc1nc2c(-c3cccc(C(F)(F)F)c3)nnn2c2ccccc12`, the IC50 in [12] was > 20 µM (inactive); in series [13], > 20 µM (inactive); in series [14], 10.3 µM (active).

The term AC50 denotes the concentration at which the activity in the assay is half-maximal. One may read the IC50 as the concentration that gives 50% inhibition. Broadly, the EC50 is the concentration needed to bring the measured effect to its halfway point.

Values taken from ChEMBL document CHEMBL1201862, “PubChem BioAssay data set” (2004).
